In brackets after ≈: the same amount, converted by molar mass.
Columns and labels:
[1] = test system: Staphylococcus aureus; assay: Ratio of MBC to MIC for Staphylococcus aureus ATCC25923 incubated for 20 to 24 hrs; format: functional; conditions: time 20-24 hrs
[2] = test system: Escherichia coli; assay: Antibacterial activity against Escherichia coli ATCC25922 incubated for 16 to 20 hrs by broth microdilution method; format: functional; conditions: time 16-20 hrs
[3] = test system: Escherichia coli; assay: Antibacterial activity against Escherichia coli ATCC25922 at pH 6.80; format: functional
[4] = test system: Staphylococcus aureus; assay: Antibacterial activity against Staphylococcus aureus ATCC25923 under 10^5 CFU/ml of bacterial inoculum culture by absorbance based assay; format: functional
[5] = test system: Escherichia coli; assay: Antibacterial activity against Escherichia coli ATCC25922 at pH 7.80; format: functional
[6] = test system: Staphylococcus aureus; assay: Induction of resistance development in Staphylococcus aureus ATCC25923 treated daily with continuous passaging measured after 7 passages by absorbance based assay; format: functional; conditions: ATCC25923, 168 h, time 7 day
[7] = test system: Enterococcus faecalis; assay: Antibacterial activity against Enterococcus faecalis ATCC29212 incubated for 20 to 24 hrs; format: functional; conditions: time 20-24 hrs
[8] = test system: Escherichia coli; assay: Induction of resistance development in Escherichia coli ATCC25922 treated daily with continuous passaging measured for 20 passages by absorbance based assay; format: functional, organism-based; conditions: time 20.0 day
[9] = Toxicity in Kunming mouse assessed as histopathological changes in lung at 80 mg/kg/day, IG measured for 1 week; format: organism-based; conditions: in vivo, po, 168 h, time 1 weeks
[10] = test system: Escherichia coli; assay: Antibacterial activity against Escherichia coli ATCC25922 at pH 7.60; format: functional
[11] = test system: Staphylococcus aureus; assay: Induction of resistance development in Staphylococcus aureus ATCC25923 treated daily with continuous passaging measured after 13 passages by absorbance based assay; format: functional; conditions: ATCC25923, 312 h, time 13 day
[12] = test system: Escherichia coli; assay: Induction of resistance development in Escherichia coli ATCC25922 treated daily with continuous passaging measured after 8 passages by absorbance based assay; format: functional; conditions: ATCC25922, 192 h, time 8 day
[13] = test system: Escherichia coli; assay: Antibacterial activity against drug-resistant Escherichia coli clinical isolate 1333 incubated for 16 to 20 hrs by broth microdilution method; format: functional; conditions: time 16-20 hrs
[14] = test system: Staphylococcus aureus; assay: Antibacterial activity against Staphylococcus aureus ATCC25923 at pH 7.80; format: functional
[15] = test system: Escherichia coli; assay: Bactericidal activity against Escherichia coli ATCC25922 incubated for 20 to 24 hrs; format: functional; conditions: time 20-24 hrs
[16] = test system: Staphylococcus aureus; assay: Antibacterial activity against Staphylococcus aureus ATCC25923 at pH 7; format: functional
[17] = test system: Enterococcus faecalis; assay: Bactericidal activity against Enterococcus faecalis ATCC29212 incubated for 20 to 24 hrs; format: functional; conditions: time 20-24 hrs
[18] = test system: Staphylococcus aureus; assay: Antibacterial activity against Staphylococcus aureus ATCC25923 incubated for 20 to 24 hrs; format: functional; conditions: time 20-24 hrs
[19] = test system: Escherichia coli; assay: Antibacterial activity against Escherichia coli ATCC25922 under 10^4 CFU/ml of bacterial inoculum culture by absorbance based assay; format: functional
[20] = test system: Staphylococcus aureus; assay: Bactericidal activity against Staphylococcus aureus ATCC25923 at MIC incubated for 10 to 12 hrs by time-kill assay relative to control; format: functional; conditions: time 10-12 hrs
[21] = test system: Stenotrophomonas maltophilia; assay: Antibacterial activity against Stenotrophomonas maltophilia ATCC17808 incubated for 20 to 24 hrs; format: functional; conditions: time 20-24 hrs
[22] = test system: Escherichia coli; assay: Antibacterial activity against Escherichia coli ATCC25922 under 10^7 CFU/ml of bacterial inoculum culture by absorbance based assay; format: functional
[23] = test system: Staphylococcus aureus; assay: Antibacterial activity against Staphylococcus aureus ATCC25923 at pH 7.40; format: functional
[24] = Toxicity in Kunming mouse assessed as histopathological changes in spleen at 80 mg/kg/day, IG measured for 1 week; format: organism-based; conditions: in vivo, po, 168 h, time 1 weeks
[25] = test system: Staphylococcus aureus; assay: Antibacterial activity against drug-resistant Staphylococcus aureus clinical isolate M20 incubated for 16 to 20 hrs by broth microdilution method; format: functional; conditions: time 16-20 hrs
[26] = test system: Escherichia coli; assay: Antibacterial activity against Escherichia coli ATCC25922 incubated for 20 to 24 hrs; format: functional; conditions: time 20-24 hrs
[27] = test system: Escherichia coli; assay: Bactericidal activity against Escherichia coli ATCC25922 at MIC incubated for 5 hrs by time-kill assay relative to control; format: functional
[28] = test system: Staphylococcus aureus; assay: Antibacterial activity against Staphylococcus aureus ATCC25923 under 10^4 CFU/ml of bacterial inoculum culture by absorbance based assay; format: functional
[29] = test system: Stenotrophomonas maltophilia; assay: Antibacterial activity against Stenotrophomonas maltophilia ATCC17808 incubated for 16 to 20 hrs by broth microdilution method; format: functional; conditions: time 16-20 hrs
[30] = Toxicity in Kunming mouse assessed as histopathological changes in liver at 80 mg/kg/day, IG measured for 1 week; format: organism-based; conditions: in vivo, po, 168 h, time 1 weeks
[31] = test system: Enterococcus faecalis; assay: Ratio of MBC to MIC for Enterococcus faecalis ATCC29212 incubated for 20 to 24 hrs; format: functional; conditions: time 20-24 hrs
[32] = test system: Staphylococcus aureus; assay: Antibacterial activity against Staphylococcus aureus ATCC25923 under 10^7 CFU/ml of bacterial inoculum culture by absorbance based assay; format: functional
[33] = test system: Escherichia coli; assay: Induction of resistance development in Escherichia coli ATCC25922 treated daily with continuous passaging measured after 12 passages by absorbance based assay; format: functional; conditions: ATCC25922, 288 h, time 12 day
[34] = Selectivity index, ratio of IC50 for mouse HT-22 cells to MIC for methicillin-resistant Staphylococcus aureus; format: toxicity, cell-based
[35] = test system: Escherichia coli; assay: Antibacterial activity against Escherichia coli ATCC25922 at pH 7.20; format: functional
[36] = test system: Staphylococcus aureus; assay: Induction of resistance development in Staphylococcus aureus ATCC25923 at 0.5 times MIC treated daily with continuous passaging measured for 20 passages by absorbance based assay; format: functional, organism-based; conditions: time 20.0 day
[37] = test system: Escherichia coli; assay: Ratio of MBC to MIC for Escherichia coli ATCC25922 incubated for 20 to 24 hrs; format: functional; conditions: time 20-24 hrs
[38] = test system: Stenotrophomonas maltophilia; assay: Bactericidal activity against Stenotrophomonas maltophilia ATCC17808 incubated for 20 to 24 hrs; format: functional; conditions: time 20-24 hrs
[39] = test system: Enterococcus faecalis; assay: Antibacterial activity against Enterococcus faecalis ATCC29212 incubated for 16 to 20 hrs by broth microdilution method; format: functional; conditions: time 16-20 hrs
[40] = test system: Escherichia coli; assay: Antibacterial activity against Escherichia coli ATCC25922 under 10^5 CFU/ml of bacterial inoculum culture by absorbance based assay; format: functional
[41] = test system: Escherichia coli; assay: Antibacterial activity against drug-resistant Escherichia coli clinical isolate 1322 incubated for 16 to 20 hrs by broth microdilution method; format: functional; conditions: time 16-20 hrs
[42] = test system: Staphylococcus aureus; assay: Antibacterial activity against Staphylococcus aureus ATCC25923 incubated for 16 to 20 hrs by broth microdilution method; format: functional; conditions: time 16-20 hrs
[43] = test system: Staphylococcus aureus; assay: Bactericidal activity against Staphylococcus aureus ATCC25923 incubated for 20 to 24 hrs; format: functional; conditions: time 20-24 hrs
[44] = test system: Escherichia coli; assay: Antibacterial activity against Escherichia coli ATCC25922 at pH 7.40; format: functional
[45] = test system: Staphylococcus aureus; assay: Antibacterial activity against Staphylococcus aureus ATCC25923 at pH 6.80; format: functional
[46] = Toxicity in Kunming mouse assessed as histopathological changes in heart at 80 mg/kg/day, IG measured for 1 week; format: organism-based; conditions: in vivo, po, 168 h, time 1 weeks
[47] = test system: Escherichia coli; assay: Antibacterial activity against Escherichia coli ATCC25922 under 10^6 CFU/ml of bacterial inoculum culture by absorbance based assay; format: functional
[48] = test system: Staphylococcus aureus; assay: Antibacterial activity against Staphylococcus aureus ATCC25923 under 10^6 CFU/ml of bacterial inoculum culture by absorbance based assay; format: functional
[49] = test system: Staphylococcus aureus; assay: Antibacterial activity against Staphylococcus aureus ATCC25923 at pH 7.60; format: functional
[50] = test system: Stenotrophomonas maltophilia; assay: Ratio of MBC to MIC for Stenotrophomonas maltophilia ATCC17808 incubated for 20 to 24 hrs; format: functional; conditions: time 20-24 hrs
[51] = Cytotoxicity against mouse HT-22 cells incubated for 72 hrs by MTT assay; format: toxicity, cell-based
[52] = test system: Escherichia coli; assay: Antibacterial activity against Escherichia coli ATCC25922 at pH 7; format: functional
[53] = test system: Staphylococcus aureus; assay: Antibacterial activity against Staphylococcus aureus ATCC25923 at pH 7.20; format: functional
[54] = test system: Escherichia coli; assay: Induction of resistance development in Escherichia coli ATCC25922 treated daily with continuous passaging measured after 19 passages by absorbance based assay; format: functional; conditions: ATCC25922, 456 h, time 19 day
[55] = Toxicity in Kunming mouse assessed as histopathological changes in kidney at 80 mg/kg/day, IG measured for 1 week; format: organism-based; conditions: in vivo, po, 168 h, time 1 weeks

CC[C@H]1OC(=O)C[C@@H](O)[C@H](C)[C@@H](O[C@@H]2O[C@H](C)[C@@H](O)[C@H](N(C)C)[C@H]2O)[C@@H](CCN(C)Cc2cn(-c3cnc4ccccc4c3)nn2)C[C@@H](C)C(=O)/C=C/C(C)=C/[C@@H]1CNCc1cccc(C)c1
Ratio [1]: 2
MIC [2]: 0.5 µg/mL (≈ 0.541 µM)
MIC [3]: 0.5 µg/mL (≈ 0.541 µM)
MIC [4]: 0.25 µg/mL (≈ 0.271 µM)
MIC [5]: 0.125 µg/mL (≈ 0.135 µM)
MIC [6]: 1 µg/mL (≈ 1.08 µM)
MIC [7]: 1 µg/mL (≈ 1.08 µM)
Activity [8]: Not active; Compound Induced Resistance More Slowly Than Control Drug Florfenicol
Activity [9]: Non-toxic
MIC [10]: 0.125 µg/mL (≈ 0.135 µM)
MIC [11]: 2 µg/mL (≈ 2.16 µM)
MIC [12]: 1 µg/mL (≈ 1.08 µM)
MIC [13]: 1 µg/mL (≈ 1.08 µM)
MIC [14]: 0.125 µg/mL (≈ 0.135 µM)
MBC [15]: 4 µg/mL (≈ 4.33 µM)
MIC [16]: 0.5 µg/mL (≈ 0.541 µM)
MBC [17]: 8 µg/mL (≈ 8.66 µM)
MIC [18]: 0.5 µg/mL (≈ 0.541 µM)
MIC [19]: 0.125 µg/mL (≈ 0.135 µM)
Activity [20]: 100%
MIC [21]: 1 µg/mL (≈ 1.08 µM)
MIC [22]: 0.5 µg/mL (≈ 0.541 µM)
MIC [23]: 0.5 µg/mL (≈ 0.541 µM)
Activity [24]: Non-toxic
MIC [25]: 0.5 µg/mL (≈ 0.541 µM)
MIC [26]: 1 µg/mL (≈ 1.08 µM)
Activity [27]: 100%
MIC [28]: 0.125 µg/mL (≈ 0.135 µM)
MIC [29]: 2 µg/mL (≈ 2.16 µM)
Activity [30]: Non-toxic
Ratio [31]: 4
MIC [32]: 0.5 µg/mL (≈ 0.541 µM)
MIC [33]: 2 µg/mL (≈ 2.16 µM)
selectivity ratio [34]: 130
MIC [35]: 0.5 µg/mL (≈ 0.541 µM)
Activity [36]: Not active; Compound Induced Resistance Less Rapidly Than That Of Control Drug Linezolid
Ratio [37]: 4
MBC [38]: 8 µg/mL (≈ 8.66 µM)
MIC [39]: 1 µg/mL (≈ 1.08 µM)
MIC [40]: 0.25 µg/mL (≈ 0.271 µM)
MIC [41]: 0.5 µg/mL (≈ 0.541 µM)
MIC [42]: 0.5 µg/mL (≈ 0.541 µM)
MBC [43]: 2 µg/mL (≈ 2.16 µM)
MIC [44]: 0.25 µg/mL (≈ 0.271 µM)
MIC [45]: 1 µg/mL (≈ 1.08 µM)
Activity [46]: Non-toxic
MIC [47]: 0.5 µg/mL (≈ 0.541 µM)
MIC [48]: 0.25 µg/mL (≈ 0.271 µM)
MIC [49]: 0.25 µg/mL (≈ 0.271 µM)
Ratio [50]: 8
IC50 at 72 h [51]: 130 µg/mL (≈ 141 µM)
MIC [52]: 0.5 µg/mL (≈ 0.541 µM)
MIC [53]: 0.5 µg/mL (≈ 0.541 µM)
MIC [54]: 4 µg/mL (≈ 4.33 µM)
Activity [55]: Non-toxic

— ChEMBL document CHEMBL6074711, “Design, Synthesis, and Activity Evaluation of C-23-Modified 5-O-Mycaminosyltylonolide Derivatives” (ACS Med Chem Lett, 2024)
